The nature of data set [1]: Pharmacokinetics after intravenous or oral administration. It counts as in vivo, mice. The settings on record: intravenous administration.
The nature of data set [2]: Stability in plasma, whole blood, gastric fluid and intestinal fluid. Type of data set: in vitro ADME. The settings on record: plasma or whole blood. The protocol:
Ala-d4T-MP is stable both in plasma and in whole blood. […] This hypothesis is consistent with the formation of a significant amount of d4T after incubation of d4T-5′-[p-bromophenyl methoxyalaninyl phosphate] with a liver homogenate.
Orally administered d4T-5′-[p-bromophenyl methoxyalaninyl phosphate] also yielded Ala-d4T-MP and d4T as the major metabolites. […] This metabolite can be absorbed in the intestine and then further metabolized to yield d4T in the blood. The tmax and t1/2 values for d4T in mice were longer when derived from orally administered d4T-5′-[p-bromophenyl methoxyalaninyl phosphate] (42.4 minutes and 99.0 minutes, respectively) than from orally administered d4T (5 minutes and 18 minutes, respectively). The tmax value is higher but the t1/2 value is lower for orally administered d4T-5′-[p-bromophenyl methoxyalaninyl phosphate] compared to intravenously administered d4T-5′-[p-bromophenyl methoxyalaninyl phosphate]. […] However, the bioavailability of d4T metabolized from d4T-5′-[p-bromophenyl methoxyalaninyl phosphate] (48%) was lower than that of orally administered d4T (98%).

Data set [3] is described as follows: Microculture tetrazolium assay (MTA) cytotoxicity in PBMNC. The settings on record: human. As to the method:
(§1) Percent inhibition of viral replication was calculated by comparing the p24 and RT activity values from the test substance-treated infected cells with those from untreated infected cells. In parallel, the cytotoxicity of the compounds was examined using a microculture tetrazolium assay (MTA) of cell proliferation, as described.in the Zarling, Enrice, and Uckun articles Supra).
(§2) Cellular Assays of Anti-HIV Activity and Cytotoxicity. […] Percent viral inhibition was calculated by comparing the RT activity values from the test substance-treated infected cells with RT values from untreated infected cells (i.e., virus controls).
(§3) Antiviral susceptibility assays. Phenotypic drug susceptibility studies of HIV-1 isolates and strains were performed by measuring the production of the p24 gag protein in peripheral blood mononuclear cells (PBMC) from seronegative healthy volunteers in the presence of increasing concentrations of the anti-HIV agent using the quantitative Coulter HIV-1 p24 antigen ezyme immunoassay (EIA) and HIV-1 p24 Antigen Kinetic Standard (Beckman Coulter), as previously described (Uckun, 1998, Antimicrobial Agents and Chemotherapy 37(4): 835-38). Informed consent was obtained from the blood donors according to DHHS guidelines using consent forms approved by the Institutional Review Board. In brief, PBMC were cultured for 72 h in RPMI 1640 medium (Gibco) supplemented with 20% (vol/vol) heat-inactivated fetal bovine serum, 5% human interleukin-2 (Zeptometrix), 2 mM L-glutamine, 25 mM HEPES, 2 g/L NaHCO3, 100 U/ml penicillin/streptomycin (Gibco), 50 μg/ml gentamicin (Gibco), and 5 μg/ml phytohemagglutinin-P (PHA-P) (Sigma) for 24-72 hours prior to exposure to HIV at a multiplicity of infection of 0.001-0.1 during a 1-h adsorbtion period at 37±1° C. in a humidified 5-7% CO2 atmosphere. Subsequently, cells were cultured in 96-well microtiter plates (100 μl/well; 2×10^6 cells/ml, triplicate wells) in the presence of the anti-HIV agents at 6-7 different concentrations ranging from 0.0001 μM to 100 μM, and 25 μL aliquots of culture supernatants were removed from the wells on day 6 after infection for p24 EIA, as previously described (Uckun, 1998, Antimicrobial Agents and Chemotherapy, 37(4):835-38). Controls included uninfected and untreated cells (background control) and infected but untreated (virus control) cells. The p24 EIA utilizes a murine monoclonal antibody to HIV core protein used to coat microwell strips to which the antigen present in the test culture supernatant samples binds. Percent inhibition of viral replication was calculated by comparing the p24 values from the test substance-treated infected cells with p24 values from untreated infected cells (i.e., virus controls). The IC50 values were determined using the Statview statistics program (SAS Institute, Inc.). In parallel, the effects of various treatments on cell viability were also examined as previously described (Uckun, 1998, Antimicrobial Agents and Chemotherapy, 42:383-388). In brief, noninfected PBMC were treated with each compound for 5 days under identical experimental conditions. A microculture tetrazolium assay (MTA) was performed to quantitate cellular proliferation (Uckun, 1998, Antimicrobial Agents and Chemotherapy, 42:383-388).
In parallel, the cytotoxicity of the compounds was examined using a microculture tetrazolium assay (MTA) of cell proliferation, as described (in the Zarling, Enrice, and Uckun articles Supra).

A further data set relates to HIV-1 (strain: HTLVIIIB). The data set is described as follows: microbe, parasite or virus in culture. It counts as cell-based. The settings on record: Human immunodeficiency virus 1, read-out: PBMNC IC50 [RT], PBMNC; unit not given in Table 5 (0.04 = 40 nM). As to the method: as §1, §2
Data set [4] in a line: Microculture tetrazolium assay (MTA) cytotoxicity in CEM cells. The settings on record: human. The protocol:
as §1, §2

The subject of the next data set is HIV-2 (Strain: CBL-20). The experiment in a line: Inhibition of HIV-2 replication in PBMNC (RT activity). It counts as cell-based. The protocol:
(P-AZT) and with AZT. The incubation and analysis methods used were as described above for Example 3.
as §2

The test system of data set [5] is AZT- and NNI-resistant HIV-1 (strain: RTMDR-1). The experiment in a line: Inhibition of RTMDR-1 (HIV-MDR) replication in PBMNC (RT activity). Type of data set: cell-based. The protocol:
as §2

Data set [6] has as its system HIV-1 (HTLVIIIB) in TK-deficient CEM T-cells. The data set is described as follows: Inhibition of HIV-1 replication in TK-deficient CEM T-cells (p24 / RT activity). Type of data set: cell-based. The protocol:
as §1, §2

A further data set has as its system HIV-1 HTLVIIIB
The experiment in a line: microbe, parasite or virus in culture. As to the method:
In vitro assays of anti-HIV-1 activity. Normal human peripheral blood mononuclear cells (PBMNC) from HIV-negative donors were cultured 72 hours in RPMI 1640 supplemented with 20% (v/v) heat-inactivated fetal bovine serum (FBS), 3% interleukin-2, 2 mM L-glutamine, 25 mM HEPES, 2 g/L NaHCO3, […], and […] prior to exposure to HIV-1 at a multiplicity of infection (MOI) of 0.1 during a 1 hour adsorption period at 37° C. in a humidified 5% CO2 atmosphere. Subsequently, cells were cultured in 96-well microtiter plates ([…]; 2×10^6 cells/mL) in the presence of various concentrations of d4T phosphoramidates and aliquots of culture supernatants were removed from the wells on the 7th day after infection for p24 antigen assays, as previously described (Uckun et al., 1998, Antimicrobial Agents and Chem., 42(2):383-388). The applied p24 enzyme immunoassay (EIA) was the unmodified kinetic assay commercially available from Coulter Corporation/Immunotech, Inc. (Westbrooke, Me.), which utilizes a murine mAb to HIV core protein coated onto microwell strips to which the antigen present in the test culture supernatant samples binds. Percent viral inhibition was calculated by comparing the p24 values from untreated infected cells (i.e., virus controls).
The anti-HIV activity of the compounds was examined by evaluating their ability to inhibit HIV replication in peripheral blood mononuclear cells using previously described procedures (Uckun et al., 1998, Antimicrobial Agents and Chem., 42(2):383-388). Percent inhibition of viral replication was calculated by comparing the p24 antigen levels from the test substance-treated infected cells with those from vehicle-treated infected cells.
as §3, with “Inc.).” for “Inc.). In parallel, the effects of various treatments on cell viability were also examined as previously described (Uckun, 1998, Antimicrobial Agents and Chemotherapy, 42:383-388). In brief, noninfected PBMC were treated with each compound for 5 days under identical experimental conditions. A microculture tetrazolium assay (MTA) was performed to quantitate cellular proliferation (Uckun, 1998, Antimicrobial Agents and Chemotherapy, 42:383-388).”

[7] abbreviates: Human immunodeficiency virus 1, PBMC.

Here are results for three compounds from patent US20070015733A1, “Aryl Phosphate Derivatives of d4T having Activity Against Resistant HIV Strains” (Parker Hughes Institute, priority 1998, published 2007).

The IC50 is the concentration that gives 50% inhibition. Usually IC90 stands for the point of the concentration-response curve where the effect stands at 90%. Read a high IC90 as a need for much substance.

Read-outs that look alike come from different tables or passages of the source.

As for `Cc1cn([C@H]2C=C[C@@H](COP(=O)(O)NC(C)C(=O)O)O2)c(=O)[nH]c1=O` (stereo partly drawn) [Ala-d4T-MP, alaninyl-d4T-monophosphate], in data set [1], the “elimination half-life (t1/2) of the administered substance” value is 28.5 min. Moreover, the “stability in plasma and whole blood” value in data set [2] was “stable”.

For `COC(=O)C(C)NP(=O)(OC[C@H]1O[C@@H](n2cc(C)c(=O)[nH]c2=O)CC1N=[N+]=[N-])Oc1ccc(Br)cc1` (stereo partly drawn) [Compound 5c, AZT-5′-(para-bromophenylmethoxyalaninyl phosphate)], in data set [3], the IC50 at 5 days is > 10 µM. In addition, the IC50 was 4 nM in the data set on HIV-1 (strain: HTLVIIIB); > 10 µM in data set [4]; 3.9 µM in the data set with HIV-2 (Strain: CBL-20) (Human immunodeficiency virus 2, read-out: HIV-2 IC50 [RT]); 1500 nM in [5] (Human immunodeficiency virus 1, read-out: HIV-MDR IC50 [RT]); 1500 nM in [5] (Human immunodeficiency virus 1, read-out: IC50 against HIV-MDR); 1500 nM in data set [5] (Human immunodeficiency virus 1, read-out: RTMDR-1 IC50 [RT]). In addition, the concentration for half-maximal inhibition (IC50) is 40 nM in data set [6] (Human immunodeficiency virus 1, CCRF-CEM, TK-deficient CEM cells, read-out: IC50 value for inhibition of RT activity) and 40 nM in data set [6] (Human immunodeficiency virus 1, T-cell, TK-deficient CEM T-cells, Table 5, read-out: CEM IC50 [RT]). Moreover, the “antiviral activity against HIV-2 (in words)” value with HIV-2 (Strain: CBL-20) (PBMNC) was “not effective”. Also, the “antiviral activity against RTMDR-1 (in words)” value in [5] (PBMNC) is listed as “not effective”. Moreover, the “times more effective than AZT in inhibiting HIV replication” value in data set [6] (TK-deficient CEM cells) is 5 times.

`Cc1c(O)cccc1C(=O)N[C@@H](CSc1ccccc1)[C@H](O)CN1C[C@H]2CCCC[C@H]2C[C@H]1C(=O)NC(C)(C)C` [nelfinavir] registered a CC50 at 5 days in [3] of 3.5 ± 1.4 µM. For the same compound, in the data set with HIV-1 HTLVIIIB, the “SI(CC50/IC50)” value was determined as 583. In addition, in the data set on HIV-1 HTLVIIIB (setting [7]), 6 ± 3 nM corresponded to half-maximal inhibition (IC50) and the 90% effect level (IC90) was put at 84 ± 38 nM.
